According to PubChem BioAssay AID248 (DTP/NCI, 2004):
“And” between values parts separate entries of the source, which are not always exact repeats. Equal values may be shown once. Inconclusive results and toxic doses are left out. Square brackets hold non-standard residues; d marks the D form. Peptide text beside a SMILES is read from it. ξ: configuration not given here. ξV = CC(C)C(N)C(=O)O

Tested on: L1210 leukemia ip in BDF1 mice, survival T/C
Assay: NCI In Vivo Anticancer Drug Screen. Data for tumor model L1210 Leukemia (intraperitoneal) in B6D2F1 (BDF1) mice
Settings: higher = longer survival
Procedure, shortened: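 Survival endpoint. Drug-treated group vs vehicle group, expressed as T divided by C. Tumor passaged by transplantation.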

[1] = endpoint: mean survival time, dose: 100.0 mg/kg/injection, schedule: Q01DX009 (ip), vehicle: saline
[2] = endpoint: mean survival time, dose: 200.0 mg/kg/injection, schedule: Q01DX009 (ip), vehicle: saline

CN(N=O)C(=O)NC(C=O)C(O)C(O)C(O)CO (stereo unspecified)
T/C (endpoint: mean survival time, dose: 3.5 mg/kg/injection, schedule: Q#A X Z (ip), vehicle: saline): 108 % of control
T/C (endpoint: mean survival time, dose: 4.0 mg/kg/injection, schedule: Q#A X Z (ip), vehicle: saline): 105 % of control
T/C (endpoint: mean survival time, dose: 5.5 mg/kg/injection, schedule: Q#A X Z (ip), vehicle: saline): 116 % of control
T/C (endpoint: mean survival time, dose: 6.0 mg/kg/injection, schedule: Q01DX Z (ip), vehicle: saline): 105 % of control
T/C (endpoint: mean survival time, dose: 6.0 mg/kg/injection, schedule: Q#A X Z (ip), vehicle: saline): 103 % of control
T/C (endpoint: mean survival time, dose: 8.0 mg/kg/injection, schedule: Q01DX Z (ip), vehicle: saline): 97 % of control
T/C (endpoint: mean survival time, dose: 8.5 mg/kg/injection, schedule: Q#A X Z (ip), vehicle: saline): 118 % of control
T/C (endpoint: mean survival time, dose: 9.0 mg/kg/injection, schedule: Q#A X Z (ip), vehicle: saline): 106 % of control
T/C (endpoint: mean survival time, dose: 12.0 mg/kg/injection, schedule: Q01DX Z (ip), vehicle: saline): 105 % of control and 106 % of control
T/C (endpoint: mean survival time, dose: 12.5 mg/kg/injection, schedule: Q01DX009 (ip), vehicle: saline): 95 % of control and 101 % of control
T/C (endpoint: mean survival time, dose: 12.5 mg/kg/injection, schedule: Q01DX Z (ip), vehicle: saline): 96 % of control and 101 % of control
T/C (endpoint: mean survival time, dose: 18.0 mg/kg/injection, schedule: Q01DX Z (ip), vehicle: saline): 108 % of control
T/C (endpoint: mean survival time, dose: 24.5 mg/kg/injection, schedule: Q01DX Z (ip), vehicle: water): 111 % of control
T/C (endpoint: mean survival time, dose: 25.0 mg/kg/injection, schedule: Q01DX009 (ip), vehicle: saline): 101 % of control and 103 % of control
T/C (endpoint: mean survival time, dose: 25.0 mg/kg/injection, schedule: Q01DX Z (im), vehicle: saline): 109 % of control
T/C (endpoint: mean survival time, dose: 26.0 mg/kg/injection, schedule: Q01DX Z (ip), vehicle: saline): 118 % of control
T/C (endpoint: mean survival time, dose: 26.0 mg/kg/injection, schedule: Q01DX Z (sc), vehicle: saline): 110 % of control
T/C (endpoint: mean survival time, dose: 30.0 mg/kg/injection, schedule: Q#A X Z (ip), vehicle: saline): 112 % of control
T/C (endpoint: mean survival time, dose: 34.0 mg/kg/injection, schedule: Q03DX005 (ip), vehicle: saline): 103 % of control
T/C (endpoint: mean survival time, dose: 36.0 mg/kg/injection, schedule: Q03DX003 (ip), vehicle: saline): 118 % of control
T/C (endpoint: mean survival time, dose: 40.0 mg/kg/injection, schedule: Q01DX009 (iv), vehicle: saline): 120 % of control
T/C (endpoint: mean survival time, dose: 40.0 mg/kg/injection, schedule: Q01DX Z (ip), vehicle: saline): 151 % of control
T/C (endpoint: mean survival time, dose: 40.0 mg/kg/injection, schedule: Q01DX Z (sc), vehicle: saline): 106 % of control and 107 % of control and 112 % of control
T/C (endpoint: mean survival time, dose: 50.0 mg/kg/injection, schedule: Q01DX009 (ip), vehicle: saline): 110 % of control and 111 % of control
T/C (endpoint: mean survival time, dose: 50.0 mg/kg/injection, schedule: Q01DX Z (im), vehicle: saline): 100 % of control
T/C (endpoint: mean survival time, dose: 52.0 mg/kg/injection, schedule: Q03DX005 (ip), vehicle: saline): 108 % of control
T/C (endpoint: mean survival time, dose: 60.0 mg/kg/injection, schedule: Q01DX009 (iv), vehicle: saline): 111 % of control
T/C (endpoint: mean survival time, dose: 60.0 mg/kg/injection, schedule: Q01DX Z (ip), vehicle: saline): 160 % of control
T/C (endpoint: mean survival time, dose: 60.0 mg/kg/injection, schedule: Q01DX Z (iv), vehicle: saline): 115 % of control
T/C (endpoint: mean survival time, dose: 78.0 mg/kg/injection, schedule: Q03DX005 (ip), vehicle: saline): 118 % of control
T/C (endpoint: mean survival time, dose: 78.0 mg/kg/injection, schedule: Q03DX 5 (iv), vehicle: saline): 117 % of control
T/C (endpoint: mean survival time, dose: 80.0 mg/kg/injection, schedule: Q03DX004 (ip), vehicle: saline): 151 % of control
T/C (endpoint: mean survival time, dose: 80.0 mg/kg/injection, schedule: Q07DX001 (ip), vehicle: saline): 124 % of control
T/C (endpoint: mean survival time, dose: 90.0 mg/kg/injection, schedule: Q01DX 1 (iv), vehicle: saline): 118 % of control
T/C (endpoint: mean survival time, dose: 90.0 mg/kg/injection, schedule: Q01DX009 (iv), vehicle: saline): 115 % of control
T/C (endpoint: mean survival time, dose: 90.0 mg/kg/injection, schedule: Q01DX Z (ip), vehicle: saline): 152 % of control and 166 % of control
T/C (endpoint: mean survival time, dose: 90.0 mg/kg/injection, schedule: Q01DX Z (iv), vehicle: saline): 121 % of control
T/C (endpoint: mean survival time, dose: 90.0 mg/kg/injection, schedule: Q03DX 5 (iv), vehicle: saline): 114 % of control
T/C (endpoint: mean survival time, dose: 90.0 mg/kg/injection, schedule: Q07DX 2 (iv), vehicle: saline): 106 % of control
T/C (endpoint: mean survival time, dose: 99.5 mg/kg/injection, schedule: Q01DX Z (ip), vehicle: water): 111 % of control
T/C [1]: 101 % of control and 120 % of control
T/C (endpoint: mean survival time, dose: 100.0 mg/kg/injection, schedule: Q01DX Z (im), vehicle: saline): 120 % of control and 124 % of control
T/C (endpoint: mean survival time, dose: 100.0 mg/kg/injection, schedule: Q01DX Z (oral), vehicle: saline): 111 % of control
T/C (endpoint: mean survival time, dose: 104.0 mg/kg/injection, schedule: Q01DX Z (oral), vehicle: saline): 101 % of control
T/C (endpoint: mean survival time, dose: 120.0 mg/kg/injection, schedule: Q01DX001 (ip), vehicle: saline): 119 % of control
T/C (endpoint: mean survival time, dose: 120.0 mg/kg/injection, schedule: Q01DX 1 (iv), vehicle: saline): 112 % of control
T/C (endpoint: mean survival time, dose: 120.0 mg/kg/injection, schedule: Q07DX 2 (iv), vehicle: saline): 102 % of control
T/C (endpoint: mean survival time, dose: 125.0 mg/kg/injection, schedule: Q01DX001 (ip), vehicle: saline): 114 % of control
T/C (endpoint: mean survival time, dose: 135.0 mg/kg/injection, schedule: Q01DX Z (iv), vehicle: saline): 95 % of control
T/C (endpoint: mean survival time, dose: 135.0 mg/kg/injection, schedule: Q01DX Z (sc), vehicle: saline): 108 % of control and 91 % of control and 92 % of control
T/C (endpoint: mean survival time, dose: 160.0 mg/kg/injection, schedule: Q01DX Z (oral), vehicle: saline): 101 % of control
T/C (endpoint: mean survival time, dose: 180.0 mg/kg/injection, schedule: Q01DX 1 (iv), vehicle: saline): 109 % of control
T/C (endpoint: mean survival time, dose: 180.0 mg/kg/injection, schedule: Q03DX Z (ip), vehicle: saline): 151 % of control
T/C (endpoint: mean survival time, dose: 180.0 mg/kg/injection, schedule: Q07DX 2 (iv), vehicle: saline): 111 % of control
T/C (endpoint: mean survival time, dose: 182.0 mg/kg/injection, schedule: Q07DX Z (ip), vehicle: saline): 123 % of control
T/C [2]: 90 % of control
T/C (endpoint: mean survival time, dose: 200.0 mg/kg/injection, schedule: Q01DX Z (im), vehicle: saline): 91 % of control
T/C (endpoint: mean survival time, dose: 200.0 mg/kg/injection, schedule: Q01DX Z (ip), vehicle: saline): 87 % of control
T/C (endpoint: mean survival time, dose: 200.0 mg/kg/injection, schedule: Q01DX Z (oral), vehicle: saline): 105 % of control
T/C (endpoint: mean survival time, dose: 240.0 mg/kg/injection, schedule: Q01DX Z (oral), vehicle: saline): 101 % of control
T/C (endpoint: mean survival time, dose: 250.0 mg/kg/injection, schedule: Q01DX001 (ip), vehicle: saline): 115 % of control
T/C (endpoint: mean survival time, dose: 270.0 mg/kg/injection, schedule: Q01DX 1 (iv), vehicle: saline): 98 % of control
T/C (endpoint: mean survival time, dose: 270.0 mg/kg/injection, schedule: Q07DX 2 (iv), vehicle: saline): 106 % of control
T/C (endpoint: mean survival time, dose: 400.0 mg/kg/injection, schedule: Q01DX Z (oral), vehicle: saline): 117 % of control
T/C (endpoint: mean survival time, dose: 405.0 mg/kg/injection, schedule: Q01DX001 (ip), vehicle: saline): 108 % of control and 89 % of control
T/C (endpoint: mean survival time, dose: 420.0 mg/kg/injection, schedule: Q07DX Z (ip), vehicle: saline): 93 % of control
T/C (endpoint: mean survival time, dose: 500.0 mg/kg/injection, schedule: Q01DX001 (ip), vehicle: saline): 117 % of control
T/C (endpoint: mean survival time, dose: 540.0 mg/kg/injection, schedule: Q01DX Z (oral), vehicle: saline): 95 % of control
T/C (endpoint: mean survival time, dose: 800.0 mg/kg/injection, schedule: Q01DX Z (oral), vehicle: saline): 105 % of control
T/C (endpoint: mean survival time, dose: 1000.0 mg/kg/injection, schedule: Q01DX001 (ip), vehicle: saline): 97 % of control
T/C (endpoint: median survival time, dose: 25.0 mg/kg/injection, schedule: Q01DX017 (ip), vehicle: water): 122 % of control
T/C (endpoint: median survival time, dose: 50.0 mg/kg/injection, schedule: Q01DX017 (ip), vehicle: water): 150 % of control

Cn1c(C(O)(Cc2ccccn2)Cc2ccccn2)cc2ccccc21
T/C (endpoint: mean survival time, dose: 100.0 mg/kg/injection, schedule: Q04DX002 (ip), vehicle: saline with Tween-80): 90 % of control
T/C (endpoint: mean survival time, dose: 200.0 mg/kg/injection, schedule: Q04DX002 (ip), vehicle: saline with Tween-80): 90 % of control
T/C (endpoint: mean survival time, dose: 400.0 mg/kg/injection, schedule: Q04DX002 (ip), vehicle: saline with Tween-80): 97 % of control

CC(C)C(NC(=O)CNC(=O)CN)C(=O)O (stereo not drawn) (H-Gly-Gly-[ξV]-OH)
T/C [1]: 104 % of control
T/C (endpoint: mean survival time, dose: 100.0 mg/kg/injection, schedule: Q04DX003 (ip), vehicle: saline): 106 % of control
T/C [2]: 102 % of control
T/C (endpoint: mean survival time, dose: 200.0 mg/kg/injection, schedule: Q04DX003 (ip), vehicle: saline): 103 % of control
T/C (endpoint: mean survival time, dose: 400.0 mg/kg/injection, schedule: Q01DX009 (ip), vehicle: saline): 102 % of control
T/C (endpoint: mean survival time, dose: 400.0 mg/kg/injection, schedule: Q04DX003 (ip), vehicle: saline): 106 % of control
